Data: US4325970A, “15-Acetyl-prostaglandins” (Hoffmann-La Roche Inc., priority 1980, dated 1982)
Read-outs that look alike come from different tables or passages of the source.

Experiments:
gastric secretion = assay: gastric secretory depressant test in the unanesthetized rat with acute gastric fistula (acid concentration, acid output, pH); format: in vivo; conditions: for % Inhibition, acid concentration (S.E.M.) / % Inhibition, acid output (S.E.M.): 10 μg/kg b.w. I.G.
Description: were tested as gastric secretory depressants in the unanesthesized rat with acute gastric fistula by the following procedure:
During this baseline period, the pH of the secretory flow was about 1.5 for each animal. Individual samples were collected at 10-minute intervals during this baseline period to monitor the pH. The compounds dissolved in polyethylene glycol-400 were administered intragastrically (I.G.) after this baseline period and samples were continuously collected for up to 180 minutes. The samples of gastric contents were subsequently assayed for volume, total acid concentration (μEq/ml) and total acid output for 10 minutes (μEq/10 minutes).
In addition to intragastric (I.G.) dosages, the activity of these compounds was tested for intraduodenal (I.D.) and intravenous administration (I.V.) to unanesthetized rats with acute gastric fistula as described above. For I.D. administration, the compounds were dissolved in polyethylene glycol-400. On the other hand, a trimethylolnitro-methane/ethanol solution was used for I.V. dosing. […] With this dose and route of administration of Compound A, a pronounced effect on pH was seen, an average increase of 3.1 pH units over 3 hours post administration. With the I.G. dose of Compound A of 5 μg/Kg b.w., an average increase of 1.6 pH units occurred. […] The antisecretory effect of Compound A seen after I.V. administration (10 μg/Kg b.w.) was low, amounting to about 1/4 to 1/5 that seen following I.G. dosage of Compound A. With the I.V. route of administration at this dose of Compound A (10 μg/Kg b.w.) effect on pH was minimal, 1/10 to 1/20 that seen after I.G. administration of an identical dose of Compound A.

acid secretion = acid secretion in three conscious dog models (Heidenhain pouches, Pavlov pouches or gastric fistulae); format: in vivo
Source text: These models consisted of concious dogs prepared with Heidenhain pouches, Pavlov pouches or gastric fistulae.

[1] = tested on: gastric microbleeding induced by aspirin; format: in vivo, rat; conditions: for blood lost after Compound A in combination with aspirin: intragastric, one hour
Source text: To study the effects of Compound A on gastric microbleeding induced by aspirin, a technique was developed based on that used by Menasse-Gdynia and Krupp, Toxicol, Appl. Pharmacol. 29, 389-396. The technique involves the microsurgical preparation of rats so as to isolate the stomach in an accessible, perfused system and the utilization of chromium-51-labelled red blood cells (^51 Cr-RBC) as a convenient handle for the assessment of bleeding from drug-induced gastric microlesions.
Rats were microsurgically implanted with a cannula in the vena cava (for the injection of ^51 Cr-RBC), a cannula in the forestomach (for constant infusion of tap water) and a cannula in the duodenum at the pyloric sphincter (for collection ot total gastric effluent). After a 30 min wash with tap water infused at 5.5 m/hr, each animal was administered either aspirin (100 mg/kg) or aspirin in combination with Compound A. Ease dose was administered intragastrically in 1 ml 40% polyethylene glycol (having molecular weight of 400) vehicle and allowed to remain in the stomach for 15 min. Simultaneously 0.9 ml ^51 Cr-RBC (3×10^6) was administered through the vena cava. Gastric effluent was collected every 5 min for a total of […]. Radioactivity was determined in a gamma counter. The results are expressed as microliters of whole blood lost during the 60 min experiments, based on the following formula: [formula]

[2] = 20 minutes after administration
[3] = 30 minutes after administration
[4] = 40 minutes after administration
[5] = 50 minutes after administration
[6] = 60 minutes after administration
[7] = 70 minutes after administration
[8] = 80 minutes after administration
[9] = 90 minutes after administration
[10] = 100 minutes after administration
[11] = 110 minutes after administration
[12] = 120 minutes after administration
[13] = 130 minutes after administration
[14] = 140 minutes after administration
[15] = 150 minutes after administration
[16] = 160 minutes after administration
[17] = 170 minutes after administration
[18] = 180 minutes after administration
[19] = Compound A 10 μg/kg + aspirin 100 mg/kg

SMILES: CCCCC(C)(C)[C@@H](/C=C/C1[C@H](C)CC(=O)[C@@H]1C/C=C\CCCC(=O)O)OC(C)=O (stereo in doubt) [Compound A, (8R,11R,12S,15R,5Z,13E)-15-acetyloxy-11,16,16-trimethyl-9-oxoprosta-5,13-dien-1-oic acid]
- duration of action (gastric secretion; 5 μg/Kg I.G.): 110 min
- response in pH relative to that seen with the 10 μg/Kg b.w. dose of Compound A (gastric secretion; 5 μg/Kg I.G. vs 10 μg/Kg I.G.): about 50%
- average increase of pH (gastric secretion; 5 μg/Kg b.w. I.G.): 1.6 pH units
- effect on pH compared with 10 μg/Kg I.G. of Compound B (gastric secretion; 5 μg/Kg b.w. I.G.): essentially equivalent to that of the 10 μg/Kg I.G. of Compound B
- duration of action (gastric secretion; 10 μg/Kg I.G.): 180 min
- effect on acid concentration and output compared with I.G. dosage (gastric secretion; 10 μg/Kg b.w. I.D.): no different to the I.G. dosage of Compound A
- effect on pH compared with I.G. route (gastric secretion; 10 μg/Kg b.w. I.D.): much lower than by the I.G. route
- average increase of pH (gastric secretion; 10 μg/Kg b.w. I.G. (printed 10 g/Kg), over 3 hours post administration): 3.1 pH units
- antisecretory effect (gastric secretion; 10 μg/Kg b.w. I.V.): low
- effect on pH (gastric secretion; 10 μg/Kg b.w. I.V.): minimal
- % Inhibition, acid concentration (S.E.M.) (gastric secretion; [2]): 34 (16) %
- % Inhibition, acid output (S.E.M.) (gastric secretion; [2]): 39 (14) %
- % Inhibition, acid concentration (S.E.M.) (gastric secretion; [3]): 91 (9) %
- % Inhibition, acid output (S.E.M.) (gastric secretion; [3]): 91 (9) %
- % Inhibition, acid concentration (S.E.M.) (gastric secretion; [4]): 70 (14) %
- % Inhibition, acid output (S.E.M.) (gastric secretion; [4]): 69 (17) %
- % Inhibition, acid concentration (S.E.M.) (gastric secretion; [5]): 50 (17) %
- % Inhibition, acid output (S.E.M.) (gastric secretion; [5]): 43 (20) %
- % Inhibition, acid concentration (S.E.M.) (gastric secretion; [6]): 67 (21) %
- % Inhibition, acid output (S.E.M.) (gastric secretion; [6]): 73 (17) %
- % Inhibition, acid concentration (S.E.M.) (gastric secretion; [7]): 67 (21) %
- % Inhibition, acid output (S.E.M.) (gastric secretion; [7]): 74 (17) %
- % Inhibition, acid concentration (S.E.M.) (gastric secretion; [8]): 67 (21) %
- % Inhibition, acid output (S.E.M.) (gastric secretion; [8]): 79 (16) %
- % Inhibition, acid concentration (S.E.M.) (gastric secretion; [9]): 80 (20) %
- % Inhibition, acid output (S.E.M.) (gastric secretion; [9]): 80 (20) %
- % Inhibition, acid concentration (S.E.M.) (gastric secretion; [10]): 67 (20) %
- % Inhibition, acid output (S.E.M.) (gastric secretion; [10]): 60 (25) %
- % Inhibition, acid concentration (S.E.M.) (gastric secretion; [11]): 60 (24) %
- % Inhibition, acid output (S.E.M.) (gastric secretion; [11]): 68 (20) %
- % Inhibition, acid concentration (S.E.M.) (gastric secretion; [12]): 67 (20) %
- % Inhibition, acid output (S.E.M.) (gastric secretion; [12]): 72 (20) %
- % Inhibition, acid concentration (S.E.M.) (gastric secretion; [13]): 80 (19) %
- % Inhibition, acid output (S.E.M.) (gastric secretion; [13]): 80 (20) %
- % Inhibition, acid concentration (S.E.M.) (gastric secretion; [14]): 100 (0) %
- % Inhibition, acid output (S.E.M.) (gastric secretion; [14]): 100 (0) %
- % Inhibition, acid concentration (S.E.M.) (gastric secretion; [15]): 72 (17) %
- % Inhibition, acid output (S.E.M.) (gastric secretion; [15]): 92 (5) %
- % Inhibition, acid concentration (S.E.M.) (gastric secretion; [16]): 80 (16) %
- % Inhibition, acid output (S.E.M.) (gastric secretion; [16]): 82 (18) %
- % Inhibition, acid concentration (S.E.M.) (gastric secretion; [17]): 80 (15) %
- % Inhibition, acid output (S.E.M.) (gastric secretion; [17]): 80 (20) %
- % Inhibition, acid concentration (S.E.M.) (gastric secretion; [18]): 67 (33) %
- % Inhibition, acid output (S.E.M.) (gastric secretion; [18]): 71 (29) %
- antisecretory effects (gastric secretion; I.G. dose 10 g/Kg [sic] b.w.): pronounced antisecretory effects
- duration of antisecretory effect (gastric secretion; I.G. dose 10 g/Kg [sic] b.w.): at least 3 hours
- duration of antisecretory effect compared with Compound B (gastric secretion; I.G. dose 10 g/Kg [sic] b.w.): significantly longer than that seen with Compound B
- inhibition of acid secretion (acid secretion; 50 to 100 μg/kg I.V.): at best, intermittent, slight to moderate inhibition of acid secretion of short duration
- inhibition of acid secretion (acid secretion; oral and intrapouch dose of 10 to 50 μg/kg): at best, intermittent, slight to moderate inhibition of acid secretion of short duration
- blood lost after Compound A in combination with aspirin ([1]; Compound A 1.25 μg/kg + aspirin 100 mg/kg): 178 µL
- blood lost after Compound A in combination with aspirin ([1]; Compound A 2.5 μg/kg + aspirin 100 mg/kg): 56 µL
- prevention of aspirin-induced microbleeding [1, 19]: complete prevention
- blood lost after Compound A in combination with aspirin [1, 19]: 0 µL
- effect on aspirin-induced bleeding ([1]; Compound A 1.25, 2.5 or 10 μg/kg + aspirin 100 mg/kg): reduced or prevented bleeding in a dose-dependent manner
